# Test results as given in patent publication US9551711B2, “Compositions and methods for detecting nitration of PKG-1α and methods of use thereof” (Augusta University Research Institute, Inc., priority 2013, dated 2017).
# Target: T1, PKG-1α (Homo sapiens, UniProt Q13976)
# T1 sequence (Q13976 2-671): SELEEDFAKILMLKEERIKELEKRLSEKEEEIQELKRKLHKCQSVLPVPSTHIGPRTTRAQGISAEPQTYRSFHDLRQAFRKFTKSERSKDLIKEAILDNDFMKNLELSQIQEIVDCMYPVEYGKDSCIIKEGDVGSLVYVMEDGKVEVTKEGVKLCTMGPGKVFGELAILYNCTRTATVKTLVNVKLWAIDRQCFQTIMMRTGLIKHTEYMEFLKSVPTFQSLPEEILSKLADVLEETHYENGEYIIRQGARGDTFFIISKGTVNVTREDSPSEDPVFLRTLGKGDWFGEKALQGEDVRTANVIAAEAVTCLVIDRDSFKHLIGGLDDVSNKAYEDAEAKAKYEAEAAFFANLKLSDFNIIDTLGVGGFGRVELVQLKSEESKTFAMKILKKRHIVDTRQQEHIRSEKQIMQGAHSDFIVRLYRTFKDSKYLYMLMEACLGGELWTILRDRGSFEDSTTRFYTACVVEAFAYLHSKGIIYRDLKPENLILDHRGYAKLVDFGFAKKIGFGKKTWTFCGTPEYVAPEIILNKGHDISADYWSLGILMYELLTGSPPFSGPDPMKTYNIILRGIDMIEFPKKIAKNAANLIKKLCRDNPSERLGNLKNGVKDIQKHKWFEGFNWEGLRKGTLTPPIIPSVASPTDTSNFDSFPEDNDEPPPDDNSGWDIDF
# Test: [3H]cGMP binding assay on immunopurified PKG-1α
# Set-up: an expression plasmid containing a full length WT-PKG-1α cDNA; made in house; host or cells: HEK-293T; the results paragraph b304 says PASMC
# Conditions: WT-PKG-1α; SIN-1 treatment
# Experimental: HEK-293T cells were transiently transfected with either the WT-PKG-1α or the Y247FPKG-1α cDNA using Effectene transfection reagent (Qiagen), according to the manufacturer's instructions. Briefly, the cells were split the day before the transfection to low cell densities (25%) and were transfected 24 h later. After 48 h of transfection, the cells were incubated in DMEM serum free media containing 1% FBS and antibiotics for 4 h and then treated with or without SIN-1 (500 μM), for 30 min. This method produced an approximate 70% transfection efficiency of HEK-293T cells, as measured using green fluorescent protein vectors. […]
# The batches of supernatant were pooled, and 2 μg of anti-PKG-1α antibody per mg of protein were added to the extract and rocked at 4° C. […] After 15 min of agitation at 4° C., the beads were pelleted by centrifugation, and the supernatant containing the PKG-1α protein was collected, quantified using Bradford reagent, and stored at −80° C.
# To assay the binding of cGMP to WT- and Y247F-PKG-1α the enzymes were saturated with cGMP by incubating 50 μl aliquots of the diluted PKG constructs for 60 min at room temperature with 50 μl of [^3H]cGMP and 150 μl of cGMP-binding assay mixture (25 mM K2HPO4, 25 mM KH2PO4, 1 mM EDTA, pH 6.8, 2M NaCl, 200 μM 3-isobutyl-1-methylxanthine). […] The dissociation constant (Kd) values were determined using GraphPad Prism graphics. […]
substance,measurement,value
3-morpholinosydnonimine N-ethylcarbamide [SIN-1],maximal [3H]cGMP binding,significantly attenuated
